# Data taken from patent US9751874B2, “Hydroxy containing FXR (NR1H4) modulating compounds” (Gilead Sciences, Inc., priority 2014, dated 2017).
# How the values were obtained:
# [1] = target: T1, FXR ligand binding domain (Homo sapiens, UniProt Q96RI1); assay: Mammalian One Hybrid (M1H) assay, Gal4 promoter driven transactivation in HEK293 cells; type: cell-based; conditions: Gal4-FXR-LBD luciferase reporter, 16 h
# T1 construct: expressed in transfected cells; host or cells: HEK293 cells, transiently transfected with pCMV-BD-FXR-LBD, pFR-Luc and pRL-CMV
# T1 sequence (Q96RI1 187-472 isoform Q96RI1-2): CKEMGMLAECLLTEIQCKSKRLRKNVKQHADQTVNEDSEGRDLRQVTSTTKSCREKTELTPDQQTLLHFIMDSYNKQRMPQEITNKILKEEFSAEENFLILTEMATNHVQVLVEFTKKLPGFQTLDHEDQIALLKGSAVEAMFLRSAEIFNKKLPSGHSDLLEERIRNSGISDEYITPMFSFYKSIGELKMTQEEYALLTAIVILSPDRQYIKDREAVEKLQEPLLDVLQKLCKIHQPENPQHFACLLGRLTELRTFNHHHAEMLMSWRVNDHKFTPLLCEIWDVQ
# Protocol: Mammalian One Hybrid (M1H) Assay
# Determination of a ligand mediated Gal4 promoter driven transactivation to quantify ligand binding mediated activation of FXR was performed as follows: The cDNA part encoding the FXR ligand binding domain was cloned into vector pCMV-BD (Stratagene) as a fusion to the yeast GAL4 DNA binding domain under the control of the CMV promoter. The amino acid boundaries of the ligand binding domain were amino acids 187-472 of Database entry NM_005123 (RefSeq). The plasmid pFR-Luc (Stratagene) was used as the reporter plasmid, containing a synthetic promoter with five tandem repeats of the yeast GAL4 binding sites, driving the expression of the Photinus pyralis (American firefly) luciferase gene as the reporter gene. In order to improve experimental accuracy the plasmid pRL-CMV (Promega) was cotransfected. pRL-CMV contains the constitutive CMV promoter, controlling the expression of the Renilla reniformis luciferase. All Gal4 reporter gene assays were done in HEK293 cells (obtained from DSMZ, Braunschweig, Germany) grown in MEM with L-Glutamine and Earle's BSS supplemented with 10% fetal bovine serum, 0.1 mM nonessential amino acids, 1 mM sodium pyruvate, and 100 units Penicilin/[…] per mL at 37° C. in 5% CO2. Medium and supplements were obtained from Invitrogen. For the assay, […] cells were plated per well in 96 well plates in 100 μL per well MEM without Phenol Red and L-Glutamine and with Earle's BSS supplemented with 10% charcoal/dextran treated FBS (HyClone, South Logan, Utah), 0.1 mM nonessential amino acids, 2 mM glutamine, 1 mM sodium pyruvate, and 100 units Penicilin/[…] per mL, incubated at 37° C. in 5% CO2. The following day the cells were >90% confluence. Medium was removed and cells were transiently transfected using 20 μL per well of a OptiMEM—polyethylene-imine-based transfection-reagent (OptiMEM, Invitrogen; Polyethyleneimine, Aldrich Cat No. 40,827-7) including the three plasmids described above. MEM with the same composition as used for plating cells was added 2-4 h after addition of transfection mixture. Then compound stocks, prediluted in MEM were added (final vehicle concentration not exceeding 0.1%). Cells were incubated for additional 16 h before firefly and renilla luciferase activities were measured sequentially in the same cell extract using a Dual-Light-Luciferase-Assay system (Dyer et al., Anal. Biochem. 2000, 282, 158-161). All experiments were done in triplicates.
# [2] = target: T2, human FXR alpha ligand binding domain (Homo sapiens, UniProt Q96RI1); assay: FRET activity assay (ligand mediated cofactor peptide interaction, LANCE); type: biochemical; conditions: GST-FXR-LBD / biotinylated SRC-1 peptide (676-700), read-out: F EC50
# T2 construct: made in house; host or cells: E. coli BL21(DE3), vector pDEST15
# T2 sequence (Q96RI1 187-472 isoform Q96RI1-2): T1 sequence (Q96RI1 187-472 isoform Q96RI1-2)
# Protocol: Determination of a ligand mediated cofactor peptide interaction to quantify ligand binding to the nuclear receptor FXR was performed as follows: Preparation of human FXR alpha ligand binding domain: The human FXRalpha LBD was expressed in E. coli strain BL21(DE3) as an N-terminally GST tagged fusion protein. The DNA encoding the FXR ligand binding domain was cloned into vector pDEST15 (Invitrogen). Expression was under control of an IPTG inducible T7 promoter. The amino acid boundaries of the ligand binding domain were amino acids 187-472 of Database entry NM_005123 (RefSeq). Expression and purification of the FXR-LBD: An overnight preculture of a transformed E. coli strain was diluted 1:20 in LB-Ampicillin medium and grown at 30° C. to an optical density of OD600=0.4-0.6. Gene expression was then induced by addition of 0.5 mM IPTG. Cells were incubated an additional 6 h at 30° C., 180 rpm. Cells were collected by centrifugation (7000×g, 7 min, rt). Per liter of original cell culture, cells were resuspended in 10 mL lysis buffer (50 mM Glucose, 50 mM Tris pH 7.9, 1 mM EDTA and 4 mg/mL lysozyme) and left on ice for 30 min. Cells were then subjected to sonication and cell debris removed via centrifugation (22000×g, 30 min, 4° C.). Per 10 mL of supernatant 0.5 mL prewashed Glutathione 4B sepharose slurry (Qiagen) was added and the suspension kept slowly rotating for 1 h at 4° C. Glutathione 4B sepharose beads were pelleted by centrifugation (2000×g, 15 sec, 4° C.) and washed twice in wash buffer (25 mM Tris, 50 mM KCl, 4 mM MgCl2 and 1M NaCl). The pellet was resuspended in 3 mL elution buffer per liter of original culture (elution buffer: 20 mM Tris, 60 mM KCl, 5 mM MgCl2 and 80 mM glutathione added immediately prior to use as powder). The suspension was left rotating for 15 min at 4° C., the beads pelleted and eluted again with half the volume of elution buffer than the first time. The eluates were pooled and dialysed overnight in 20 mM Hepes buffer (pH 7.5) containing 60 mM KCl, 5 mM MgCl2 as well as 1 mM dithiothreitol and 10% (v/v) glycerol. The protein was analysed by SDS-Page.
# The method measures the ability of putative ligands to modulate the interaction between the purified bacterial expressed FXR ligand binding domain (LBD) and a synthetic biotinylated peptide based on residues 676-700 of SRC-1 (LCD2, 676-700). The sequence of the peptide used was B—[…]—COOH where the N-terminus was biotinylated (B). The ligand binding domain (LBD) of FXR was expressed as fusion protein with GST in BL-21 cells using the vector pDEST15. Cells were lysed by sonication, and the fusion proteins purified over glutathione sepharose (Pharmacia) according to the manufacturers instructions. For screening of compounds for their influence on the FXR-peptide interaction, the Perkin Elmer LANCE technology was applied. This method relies on the binding dependent energy transfer from a donor to an acceptor fluorophor attached to the binding partner of interest. For ease of handling and reduction of background from compound fluorescence LANCE technology makes use of generic fluorophore labels and time resolved detection Assays were done in a final volume of 25 μL in a 384 well plate, in a Tris-based buffer (20 mM Tris-HCl pH 7.5; 60 mM KCl, 5 mM MgCl2; 35 ng/μL BSA), containing 20-60 ng/well recombinantly expressed FXR-LBD fused to GST, 200-600 nM N-terminally biotinylated peptide, representing SRC1 aminoacids 676-700, 200 ng/well Streptavidin-xIAPC conjugate (Prozyme) and 6-10 ng/well Eu W1024-antiGST (Perkin Elmer). DMSO content of the samples was kept at 1%. After generation of the assay mix and diluting the potentially FXR modulating ligands, the assay was equilibrated for 1 h in the dark at rt in FIA-plates black 384 well (Greiner). The LANCE signal was detected by a Perkin Elmer VICTOR2VTM Multilabel Counter. The results were visualized by plotting the ratio between the emitted light at 665 and 615 nm. […]
smiles,measurement,setting,value
"CC1(C)C[C@@H](OCc2c(-c3c(Cl)cccc3Cl)noc2C2CC2)CC[C@]1(O)c1nc2c(F)cc(C(=O)O)cc2s1 (racemic) [Example 11-32, 2-((1R,4S)-4-((5-Cyclopropyl-3-(2,6-dichlorophenyl)isoxazol-4-yl)methoxy)-1-hydroxy-2,2-dimethylcyclohexyl)-4-fluorobenzo[d]thiazole-6-carboxylic acid]",EC50,[1],23 nM
same,EC50,[2],120 nM
"CC1(C)C[C@](O)(c2nc3c(F)cc(C(=O)O)cc3s2)CC[C@H]1OCc1c(-c2c(Cl)cccc2Cl)noc1C1CC1 (racemic) [Example 11-33, 2-((1S,4R)-4-((5-Cyclopropyl-3-(2,6-dichlorophenyl)isoxazol-4-yl)methoxy)-1-hydroxy-3,3-dimethylcyclohexyl)-4-fluorobenzo[d]thiazole-6-carboxylic acid]",EC50,[1],38 nM
same,EC50,[2],36 nM
"O=C(O)c1ccc2nc(C3(O)CC4(CC(OCc5c(-c6c(Cl)cccc6Cl)noc5C5CC5)C4)C3)sc2c1 (single isomer, unassigned) [Example 11-4a, 2-(6-((5-Cyclopropyl-3-(2,6-dichlorophenyl)isoxazol-4-yl)methoxy)-2-hydroxyspiro[3.3]heptan-2-yl)benzo[d]thiazole-6-carboxylic acid]",EC50,[1],300 nM
same,EC50,[2],56 nM
"O=C(O)c1ccc2nc(C3(O)CC4(CC(OCc5c(-c6c(Cl)cccc6Cl)noc5C5CC5)C4)C3)sc2c1 (single isomer, unassigned) [Example 11-4b, 2-(6-((5-Cyclopropyl-3-(2,6-dichlorophenyl)isoxazol-4-yl)methoxy)-2-hydroxyspiro[3.3]heptan-2-yl)benzo[d]thiazole-6-carboxylic acid]",EC50,[1],380 nM
same,EC50,[2],120 nM
"CC1(OCc2c(-c3c(Cl)cccc3Cl)noc2C2CC2)C[C@H]2CC[C@@H](C1)[C@]2(O)c1nc2c(F)cc(C(=O)O)cc2s1 (single isomer, unassigned) [Example 11-39]",EC50,[1],250 nM
same,EC50,[2],390 nM
"O=C(O)c1cc(F)c2nc([C@]3(O)[C@@H]4CC[C@H]3CC(OCc3c(-c5c(Cl)cccc5Cl)noc3C3CC3)(C(F)F)C4)sc2c1 (single isomer, unassigned) [Example 11-40]",EC50,[1],290 nM
same,EC50,[2],420 nM
"COCC1(OCc2c(-c3c(Cl)cccc3Cl)noc2C2CC2)C[C@H]2CC[C@@H](C1)[C@]2(O)c1nc2c(F)cc(C(=O)O)cc2s1 (single isomer, unassigned) [Example 11-41]",EC50,[1],320 nM
same,EC50,[2],190 nM
"O=C(O)c1cc(F)c2nc([C@]3(O)CC4CC3CC4OCc3c(-c4c(Cl)cccc4Cl)noc3C3CC3)sc2c1 (single isomer, unassigned) [Example 11-48]",EC50,[1],190 nM
same,EC50,[2],46 nM
"O=C(O)c1cc(F)c2nc(C3(O)C[C@H]4CC[C@@H](C3)C4OCc3c(-c4c(Cl)cccc4Cl)noc3C3CC3)sc2c1 (single isomer, unassigned) [Example 11-54]",EC50,[1],390 nM
same,EC50,[2],810 nM
"O=C(O)c1cc(F)c2nc(C3(O)C[C@H]4CC[C@@H](C3)C4OCc3c(-c4c(Cl)cccc4Cl)noc3C3CC3)sc2c1 (single isomer, unassigned) [Example 11-55]",EC50,[1],24 nM
same,EC50,[2],77 nM
"O=C(O)c1ccc2sc([C@]3(O)CC[C@@H](OCc4c(-c5c(Cl)cccc5Cl)noc4C4CC4)CC3)nc2c1 [Example 4, 2-((1s,4s)-4-((5-Cyclopropyl-3-(2,6-dichlorophenyl)isoxazol-4-yl)methoxy)-1-hydroxycyclohexyl)benzo[d]thiazole-5-carboxylic acid]",EC50,[1],100 nM
same,EC50,[2],21 nM
"O=C(O)c1ccc2sc([C@]3(O)CC[C@H](OCc4c(-c5c(Cl)cccc5Cl)noc4C4CC4)CC3)nc2c1 [Example 5, 2-((1r,4r)-4-((5-Cyclopropyl-3-(2,6-dichlorophenyl)isoxazol-4-yl)methoxy)-1-hydroxycyclohexyl)benzo[d]thiazole-5-carboxylic acid]",EC50,[1],1900 nM
same,EC50,[2],620 nM
"N#Cc1ccc2nc([C@]3(O)[C@@H]4CC[C@H]3C[C@H](OCc3c(-c5c(Cl)cccc5Cl)noc3C3CC3)C4)sc2c1 [Example 8-5, 2-((1R,3s,5S,8r)-3-((5-Cyclopropyl-3-(2,6-dichlorophenyl)isoxazol-4-yl)methoxy)-8-hydroxybicyclo[3.2.1]octan-8-yl)benzo[d]thiazole-6-carbonitrile]",EC50,[1],58 nM
same,EC50,[2],31 nM
"OCc1ccc([C@]2(O)CC[C@@H](OCc3c(-c4c(Cl)cccc4Cl)noc3C3CC3)CC2)c(F)c1 [Example 9-6, (1s,4s)-4-((5-Cyclopropyl-3-(2,6-dichlorophenyl)isoxazol-4-yl)methoxy)-1-(2-fluoro-4-(hydroxymethyl)phenyl)cyclohexanol]",EC50,[1],320 nM
same,EC50,[2],220 nM
"OCc1ccc(F)c([C@]2(O)CC[C@@H](OCc3c(-c4c(Cl)cccc4Cl)noc3C3CC3)CC2)c1 [Example 9-7, (1s,4s)-4-((5-Cyclopropyl-3-(2,6-dichlorophenyl)isoxazol-4-yl)methoxy)-1-(2-fluoro-5-(hydroxymethyl)phenyl)cyclohexanol]",EC50,[1],150 nM
same,EC50,[2],110 nM
